How the values were obtained:
B16 = assay: Concentration which produces 50% inhibition of proliferation of B16 melanoma cells after 40 hr incubation expressed as ED50 ratio relative to taxol; type: functional, Mus musculus
[1] = molecular target: Tubulin alpha chain (Sus scrofa) (UniProt P02550); assay: Concentration which causes polymerization of 50% of the tubulin present in 15 min at 37 degree Celsius (stimulation of microtubule assembly) expressed as ED50 ratio relative to taxol; type: functional
Chain of Tubulin alpha chain (Sus scrofa) (P02550 whole entry, looked up): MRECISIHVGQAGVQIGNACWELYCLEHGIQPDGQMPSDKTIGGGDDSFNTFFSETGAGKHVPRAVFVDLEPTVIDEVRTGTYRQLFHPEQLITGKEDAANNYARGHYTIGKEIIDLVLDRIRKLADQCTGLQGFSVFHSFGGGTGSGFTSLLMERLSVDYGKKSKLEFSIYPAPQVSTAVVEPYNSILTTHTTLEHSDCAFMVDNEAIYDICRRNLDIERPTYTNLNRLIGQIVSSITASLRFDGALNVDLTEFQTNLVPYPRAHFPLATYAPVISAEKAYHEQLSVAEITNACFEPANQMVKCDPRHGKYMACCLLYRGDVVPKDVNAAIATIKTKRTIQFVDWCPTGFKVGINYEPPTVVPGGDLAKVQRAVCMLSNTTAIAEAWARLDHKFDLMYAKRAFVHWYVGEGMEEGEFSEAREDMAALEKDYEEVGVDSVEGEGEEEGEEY

Row | ED50 ratio [1] | SMILES | ED50 ratio (B16)
1 | 2 | CC(=O)O[C@H]1C(=O)[C@@]2(C)[C@H]([C@H](OC(=O)c3ccccc3)[C@]3(O)C[C@H](OC(=O)[C@H](O)[C@@H](NC(=O)c4ccc(N=[N+]=[N-])cc4)c4ccccc4)C(C)=C1C3(C)C)[C@]1(OC(C)=O)CO[C@@H]1C[C@@H]2O | 4.6
2 | 21.4 | CC(=O)O[C@H]1C(=O)[C@]2(C)[C@@H](OC(=O)c3ccc(N=[N+]=[N-])cc3)C[C@H]3OC[C@@]3(OC(C)=O)[C@H]2[C@H](OC(=O)c2ccccc2)[C@]2(O)C[C@H](OC(=O)[C@H](O)[C@@H](NC(=O)c3ccccc3)c3ccccc3)C(C)=C1C2(C)C | 30
3 | > 22.4 | CC(=O)O[C@H]1C(=O)[C@]2(C)[C@@H](OC(=O)c3c(F)c(F)c(N=[N+]=[N-])c(F)c3F)C[C@H]3OC[C@@]3(OC(C)=O)[C@H]2[C@H](OC(=O)c2ccccc2)[C@]2(O)C[C@H](OC(=O)[C@H](O)[C@@H](NC(=O)c3ccccc3)c3ccccc3)C(C)=C1C2(C)C | 
4 | 4.6 | CC(=O)O[C@H]1C(=O)[C@@]2(C)[C@H]([C@H](OC(=O)c3ccccc3)[C@]3(O)C[C@H](OC(=O)[C@H](O)[C@@H](NC(=O)c4c(F)c(F)c(N=[N+]=[N-])c(F)c4F)c4ccccc4)C(C)=C1C3(C)C)[C@]1(OC(C)=O)CO[C@@H]1C[C@@H]2O | 14.8

From ChEMBL document CHEMBL1127241, “Taxol photoaffinity labels 2. Synthesis and biological evaluation of N-(4-azidobenzoyl)-N-debenzoyltaxol, N-(4-azido-2,3,5,6-tetrafluorobenzoyl)-N-debenzoyltaxol, and 7-(4-azido-2,3,5,6-tetrafluorobenzoyl)taxol” (1994)
